Target: T1, human Werner helicase (WRN-BV08, Uniprot Q14191, amino acids 517-1235 with L1074F point mutation) (Homo sapiens, UniProt Q14191, L1074F)
T1 construct: Uniprot Q14191, amino acids 517-1235 with L1074F point mutation; TEV-cleavable 8×His (C, cleaved yes); made in house; host or cells: Sf9 insect cells (baculovirus)
Assay: WRN (BV08) ADP-Glo Assay
Format: biochemical
Conditions: 0.15 nM WRN, 5 μM ATP, 0.1 nM DNA duplex, 15 min preincubation, 60 min at 25° C., pH 7.5, 1% DMSO; read-out: ADP-Glo_hWRN_IC50
Summary of the method: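 0.15 nM WRN (aa 517-1235, L1074F, Sf9-expressed, tag cleaved) preincubated 15 min at 25 °C with compound, then 5 μM ATP and 0.1 nM DNA duplex added for 60 min. Buffer: 20 mM Bicine pH 7.5, 1 mM MgCl2, 10 mM KCl, 1 mM TCEP; 1% DMSO. ADP-Glo luminescence; IC50 by 4-parameter fit.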

T1 sequence (Q14191 with tags, fused parts or gaps L1074F limits assumed): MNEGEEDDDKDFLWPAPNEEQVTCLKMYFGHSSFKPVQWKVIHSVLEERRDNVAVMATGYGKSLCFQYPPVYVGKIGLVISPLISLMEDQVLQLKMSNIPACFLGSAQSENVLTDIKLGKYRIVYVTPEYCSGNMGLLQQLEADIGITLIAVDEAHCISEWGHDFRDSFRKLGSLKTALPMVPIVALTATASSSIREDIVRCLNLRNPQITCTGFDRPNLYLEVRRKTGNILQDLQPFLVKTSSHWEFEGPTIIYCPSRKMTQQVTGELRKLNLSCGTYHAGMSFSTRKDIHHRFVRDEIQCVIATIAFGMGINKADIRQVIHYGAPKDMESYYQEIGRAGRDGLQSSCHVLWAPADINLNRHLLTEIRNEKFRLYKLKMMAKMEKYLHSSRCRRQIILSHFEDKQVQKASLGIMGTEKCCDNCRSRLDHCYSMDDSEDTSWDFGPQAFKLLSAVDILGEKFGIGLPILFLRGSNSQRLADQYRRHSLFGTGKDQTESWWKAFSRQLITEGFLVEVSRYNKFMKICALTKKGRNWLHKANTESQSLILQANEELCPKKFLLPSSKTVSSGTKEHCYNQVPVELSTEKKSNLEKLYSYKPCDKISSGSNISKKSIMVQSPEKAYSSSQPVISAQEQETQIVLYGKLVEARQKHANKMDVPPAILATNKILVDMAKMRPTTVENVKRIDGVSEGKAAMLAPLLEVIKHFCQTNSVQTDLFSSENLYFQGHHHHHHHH

Row | IC50 | Compound
1 | > 50 µM | O=C(CCc1ccc(-n2cccc2)cc1)N(Cc1ccncc1)C1C=CS(=O)(=O)C1 (stereo not shown) [I-519, N-(1,1-dioxo-2,3-dihydro-1lambda6-thiophen-3-yl)-N-[(pyridin-4-yl)methyl]-3-[4-(1H-pyrrol-1-yl)phenyl]propanamide]
2 | > 50 µM | O=C(CC12CC(c3ccccc3)(C1)C2)N(Cc1ccncc1)C1C=CS(=O)(=O)C1 (stereo not shown) [I-439, N-(1,1-dioxo-2,3-dihydro-1lambda6-thiophen-3-yl)-2-{3-phenylbicyclo[1.1.1]pentan-1-yl}-N-[(pyridin-4-yl)methyl]acetamide]
3 | < 0.5 µM | CSC(C(=O)N(Cc1ccnc(C(C)(C)O)c1)C1C=CS(=O)(=O)C1)c1ccc(-c2ccc(F)c(F)c2)cc1F (stereo not shown) [I-36, N-(1,1-dioxido-2,3-dihydrothiophen-3-yl)-N-((2-(2-hydroxypropan-2-yl)pyridin-4-yl)methyl)-2-(methylthio)-2-(3,3′,4′-trifluoro-[1,1′-biphenyl]-4-yl)acetamide]
4 | < 0.5 µM | CC(C)(O)c1cc(CN(C(=O)Cc2ccc(-c3cc(F)c(F)c(F)c3)cc2F)C2C=CS(=O)(=O)C2)ccn1 (stereo not shown) [I-19, N-(1,1-dioxo-2,3-dihydro-1lambda6-thiophen-3-yl)-N-{[2-(2-hydroxypropan-2-yl)pyridin-4-yl]methyl}-2-{3,3′,4′,5′-tetrafluoro-[1,1′-biphenyl]-4-yl}acetamide]
5 | 0.5 to 5 µM | O=C(Cc1ccc(C2CCC2)cc1)N(Cc1ccncc1)C1C=CS(=O)(=O)C1 (stereo not shown) [I-177, 2-(4-cyclobutylphenyl)-N-(1,1-dioxo-2,3-dihydro-1lambda6-thiophen-3-yl)-N-[(pyridin-4-yl)methyl]acetamide]
6 | 0.5 to 5 µM | CNC(=O)C(C(=O)N(Cc1ccnc(C(C)(C)O)c1)C1C=CS(=O)(=O)C1)c1ccc(-c2ccc(F)c(F)c2)cc1F (single isomer, unassigned) [I-690, (2R**)-N′-[(3R*)-1,1-dioxo-2,3-dihydro-1lambda6-thiophen-3-yl]-N′-{[2-(2-hydroxypropan-2-yl)pyridin-4-yl]methyl}-N-methyl-2-{3,3′,4′-trifluoro-[1,1′-biphenyl]-4-yl}propanediamide]
7 | 10 to 50 µM | O=C(CCCC[C@@H]1SC[C@@H]2NC(=O)N[C@@H]21)NCCOCCOCCOCCOCCOCCOCCC(=O)N1CCN(Cc2ccc(CN(C(=O)Cc3ccc(-n4cccc4)cc3F)C3C=CS(=O)(=O)C3)cc2)CC1 (stereo partly drawn) [II-4, 5-[(3aS,4S,6aR)-2-oxo-hexahydro-1H-thieno[3,4-d]imidazol-4-yl]-N-(21-{4-[(4-{[N-(1,1-dioxo-2,3-dihydro-1lambda6-thiophen-3-yl)-2-[2-fluoro-4-(1H-pyrrol-1-yl)phenyl]acetamido]methyl}phenyl)methyl]piperazin-1-yl}-21-oxo-3,6,9,12,15,18-hexaoxahenicosan-1-yl)pentanamide]
8 | 0.5 to 5 µM | COc1cc(CN(C(=O)C(C)c2ccc(S(F)(F)(F)(F)F)cc2)C2C=CS(=O)(=O)C2)ccn1 (stereo not shown) [I-126, N-(1,1-dioxo-2,3-dihydro-1lambda6-thiophen-3-yl)-N-[(2-methoxypyridin-4-yl)methyl]-2-[4-(pentafluoro-lambda6-sulfanyl)phenyl]propanamide]
9 | 5 to 10 µM | COc1cc(CN(C(=O)CCc2c[nH]c3cc(Cl)ccc23)C2C=CS(=O)(=O)C2)ccn1 (stereo not shown) [I-240, 3-(6-chloro-1H-indol-3-yl)-N-(1,1-dioxo-2,3-dihydro-1lambda6-thiophen-3-yl)-N-[(2-methoxypyridin-4-yl)methyl]propanamide]
10 | 5 to 10 µM | O=C(Cc1ccc(C(F)(F)F)c(F)c1)N(Cc1ccncc1)C1C=CS(=O)(=O)C1 (stereo not shown) [I-236, N-(1,1-dioxo-2,3-dihydro-1lambda6-thiophen-3-yl)-2-[3-fluoro-4-(trifluoromethyl)phenyl]-N-[(pyridin-4-yl)methyl]acetamide]
11 | 0.5 to 5 µM | O=C(Cc1ccc(-n2cccc2)cc1)N(Cc1ccncc1)C1C=CS(=O)(=O)C1 (single isomer, unassigned) [I-193]
12 | > 50 µM | COc1cc(CN(C(=O)C(OC2COC2)c2ccc(-c3ccc(F)c(F)c3)cc2F)[C@@H]2C=CS(=O)(=O)C2)ccn1 (single isomer, unassigned) [I-741, (2R*)-N-[(3R)-1,1-dioxo-2,3-dihydro-1lambda6-thiophen-3-yl]-N-[(2-methoxypyridin-4-yl)methyl]-2-(oxetan-3-yloxy)-2-{3,3′,4′-trifluoro-[1,1′-biphenyl]-4-yl}acetamide]
13 | 0.5 to 5 µM | Cc1cccn1-c1ccc(CC(=O)N(Cc2ccnc(N(C)C)c2)C2C=CS(=O)(=O)C2)c(F)c1 (stereo not shown) [I-96, N-{[2-(dimethylamino)pyridin-4-yl]methyl}-N-(1,1-dioxo-2,3-dihydro-1lambda6-thiophen-3-yl)-2-[2-fluoro-4-(2-methyl-1H-pyrrol-1-yl)phenyl]acetamide]
14 | < 0.5 µM | COc1cc(CN(C(=O)C2CNc3cc(-c4ccc(F)cc4)ccc32)[C@@H]2C=CS(=O)(=O)C2)ccn1 (stereo partly shown) [I-53, N-(1,1-dioxido-2,3-dihydrothiophen-3-yl)-6-(4-fluorophenyl)-N-((2-methoxypyridin-4-yl)methyl)indoline-3-carboxamide]
15 | 10 to 50 µM | CS(=O)(=O)Nc1ccc(CN(C(=O)Cc2ccc(-n3cccc3)cc2)C2C=CS(=O)(=O)C2)cc1 (stereo not shown) [I-284, N-(1,1-dioxo-2,3-dihydro-1lambda6-thiophen-3-yl)-N-[(4-methanesulfonamidophenyl)methyl]-2-[4-(1H-pyrrol-1-yl)phenyl]acetamide]
16 | 0.5 to 5 µM | O=C(Cc1ccc(-n2cccc2)cc1F)N(Cc1ccncc1)C1C=CS(=O)(=O)C1 (single isomer, unassigned) [I-127]
17 | > 50 µM | COc1cc(CN(C(=O)C2CCc3c([nH]c4cccc(Cl)c34)C2)[C@@H]2C=CS(=O)(=O)C2)ccn1 (stereo partly drawn) [I-785, 5-chloro-N-[(3R)-1,1-dioxo-2,3-dihydro-1lambda6-thiophen-3-yl]-N-[(2-methoxypyridin-4-yl)methyl]-2,3,4,9-tetrahydro-1H-carbazole-2-carboxamide]
18 | > 50 µM | O=C(Cc1ccc2c(c1)CCOC2)N(Cc1ccncc1)C1C=CS(=O)(=O)C1 (stereo not shown) [I-630, 2-(3,4-dihydro-1H-2-benzopyran-6-yl)-N-(1,1-dioxo-2,3-dihydro-1lambda6-thiophen-3-yl)-N-[(pyridin-4-yl)methyl]acetamide]
19 | > 50 µM | O=C(Cc1ccc(-n2cccc2CCO)cc1)N(Cc1ccccc1)C1C=CS(=O)(=O)C1 (stereo not shown) [I-383, N-benzyl-N-(1,1-dioxo-2,3-dihydro-1lambda6-thiophen-3-yl)-2-{4-[2-(2-hydroxyethyl)-1H-pyrrol-1-yl]phenyl}acetamide]
20 | > 50 µM | O=C(c1c[nH]c2cc(-c3ccc(F)cc3)ccc12)N(Cc1ccncc1)C1C=CS(=O)(=O)C1 (stereo not shown) [I-423, N-(1,1-dioxo-2,3-dihydro-1lambda6-thiophen-3-yl)-6-(4-fluorophenyl)-N-[(pyridin-4-yl)methyl]-1H-indole-3-carboxamide]
21 | > 50 µM | COc1cc(CN(C(=O)C(O/C=C/S(C)(=O)=O)c2ccc(-c3ccc(F)c(F)c3)cc2F)[C@@H]2C=CS(=O)(=O)C2)ccn1 (single isomer, unassigned) [I-803, (2R*)-N-[(3R)-1,1-dioxo-2,3-dihydro-1lambda6-thiophen-3-yl]-2-{[(1E)-2-methanesulfonylethenyl]oxy}-N-[(2-methoxypyridin-4-yl)methyl]-2-{3,3′,4′-trifluoro-[1,1′-biphenyl]-4-yl}acetamide]
22 | < 0.5 µM | CN(C)C(=O)C(C(=O)N(Cc1ccncc1)C1C=CS(=O)(=O)C1)c1ccc(-c2ccc(F)cc2)cc1 (single isomer, unassigned) [I-27, (2R**)-N′-[(3R*)-1,1-dioxo-2,3-dihydro-1lambda6-thiophen-3-yl]-2-{4′-fluoro-[1,1′-biphenyl]-4-yl}-N,N-dimethyl-N′-[(pyridin-4-yl)methyl]propanediamide]
23 | < 0.5 µM | CC(C)(O)c1csc(CN(C(=O)Cn2cc(-c3cc(F)c(F)c(F)c3)cn2)C2C=CS(=O)(=O)C2)n1 (single isomer, unassigned) [I-798]
24 | 0.5 to 5 µM | COc1cc(CN(C(=O)C(C(=O)N(C)C)c2ccc(S(F)(F)(F)(F)F)cc2)C2C=CS(=O)(=O)C2)ccn1 (stereo not shown) [I-159, N′-(1,1-dioxo-2,3-dihydro-1lambda6-thiophen-3-yl)-N′-[(2-methoxypyridin-4-yl)methyl]-N,N-dimethyl-2-[4-(pentafluoro-lambda6-sulfanyl)phenyl]propanediamide]
25 | 10 to 50 µM | Cc1cccn1-c1ccc(CC(=O)N(Cc2cncnc2)C2C=CS(=O)(=O)C2)c(F)c1 (stereo not shown) [I-364, N-(1,1-dioxo-2,3-dihydro-1lambda6-thiophen-3-yl)-2-[2-fluoro-4-(2-methyl-1H-pyrrol-1-yl)phenyl]-N-[(pyrimidin-5-yl)methyl]acetamide]
26 | < 0.5 µM | COc1cc(CN(C(=O)C(OC)c2ccc(-c3ccc(F)c(F)c3)cc2F)C2C=CS(=O)(=O)C2)ccn1 (stereo not shown) [I-45, N-(1,1-dioxo-2,3-dihydro-1lambda6-thiophen-3-yl)-2-methoxy-N-[(2-methoxypyridin-4-yl)methyl]-2-{3,3′,4′-trifluoro-[1,1′-biphenyl]-4-yl}acetamide]
27 | 0.5 to 5 µM | COc1cc(CN(C(=O)Cc2ccc(S(F)(F)(F)(F)F)cc2)C2C=CS(=O)(=O)C2)nc(N(C)C)n1 (stereo not shown) [I-635, N-{[2-(dimethylamino)-6-methoxypyrimidin-4-yl]methyl}-N-(1,1-dioxo-2,3-dihydro-1lambda6-thiophen-3-yl)-2-[4-(pentafluoro-lambda6-sulfanyl)phenyl]acetamide]
28 | 5 to 10 µM | CN(C)C(=O)C(C(=O)N(Cc1ccnc(C(C)(C)O)c1)C1C=CS(=O)(=O)C1)c1ccc(-c2ccc(F)cc2)cc1 (single isomer, unassigned) [I-264, (2R**)-N-[(3R*)-1,1-dioxo-2,3-dihydro-1lambda6-thiophen-3-yl]-2-{4′-fluoro-[1,1′-biphenyl]-4-yl}-N-{[2-(2-hydroxypropan-2-yl)pyridin-4-yl]methyl}-N′,N′-dimethylpropanediamide]

Source: patent publication US20260297070A1, “CYCLIC [COMPOUND LEFT OUT] WRN INHIBITORS” (Nimbus Wadjet, Inc., priority 2023, published 2026)
